Experimental data taken from patent US20240366524A1, “COMPOSITION AND METHOD FOR TREATING OR PREVENTING INFECTIONS” (CHITOGEL LIMITED, priority 2021, published 2024).
Entries after “also recorded” stand apart in the source; their conditions may differ.

Key:
[1] = system: commensal and pathogenic bacterial isolates; assay: Planktonic growth of nasal clinical isolates (OD 595 nm, 24 h), all isolates; assay type: cell-based
Procedure: (§1) The effect of glycerol on bacterial growth was determined by analysis of nasal bacterial isolates from subjects participating in the trial described in Example 3. The bacterial isolates were cultured for 24 hours in Nutrient Broth (NB) and Brain-Heart Infusion (BHI) which further contained glycerol in an amount of either 20% v/v, or 40% v/v, or 0% glycerol (control).
(§2) A total of 22 nasal clinical isolates including C. accolens (n=4), C. propinquum(n=3), C. pseudodiptheriticum (n=3), S. epidermidis (n=4), S. aureus (n=4) and P. aeruginosa (n=4) were used in this experiment. Prior to starting experiments, isolates were grown in tryptic soya agar (TSA) and incubated at 37° C. under aerobic conditions for 24 hours, except for C. accolens which was incubated for 48 hours.
(§3) Glycerol at 20% was prepared by dilution in nutrient broth (NB) media. Glycerol treatments at 20% concentrations were prepared in a 96-well microtitration plate containing 50 μL NB. A single colony of bacterial isolates such as C. accolens, C. propinquum, C. pseudodiptheriticum, S. epidermidis, S. aureus and P. aeruginosa from overnight cultures was suspended with 0.9% saline (aqueous NaCl) to McFarland standard of 0.5 and diluted 1:100 in NB growth media. Next, 50 μL of the diluted bacterial suspension was then added to the treatments in each well and incubated aerobically for 24 hours at 37° C. A negative control (media without bacteria and treatment) and untreated growth control (media with bacteria but no treatment) were used in this assay. After incubation, the planktonic bacterial growth was determined by measuring the optical density (OD) at 595 nm using microplate absorbance reader (iMark™, BIO-RAD). For each bacterial strain, six replicate experiments were performed to assess bacterial growth.

[2] = system: S. epidermidis; assay: Planktonic growth of nasal clinical isolates (OD 595 nm, 24 h); assay type: cell-based, Staphylococcus epidermidis
Procedure: as §1, §2, §3

[3] = system: S. aureus; assay: as above; assay type: cell-based
Procedure: as §1, §2, §3

[4] = system: P. aeruginosa; assay: as above; assay type: cell-based
Procedure: as §1, §2, §3

[5] = system: C. accolens; assay: as above; assay type: cell-based; details: NB and BHI
Procedure: as §1, §2, §3

[6] = system: S. aureus; assay: Cellulose disk on nutrient agar survival test (Example 6); assay type: cell-based; details: 48 h aerobic
Description: (§4) The growth of S. aureus and P. aeruginosa in the presence of glycerol, chitosan-dextran polymer, or a combination of glycerol and chitosan-dextran polymer, was investigated according to the following methodology: • (A) Cellulose disks (approximately 1 cm in diameter) pre-soaked in S. aureus or P. aeruginosa cultures were placed on the surface of sterile nutrient agar plates. A test substance was placed on top of the soaked disks to allow contact with both the nutrient agar and a test substance. An untreated control agar plate contained only the soaked cellulose disk, with no test substance applied. The test substances were as described in Example 5, namely: (1) 20% v/v glycerol in water; (2) CS-DA-GLY; and (3) CS-DA. All test and control cellulose disk plates were incubated for 48±1 hours at conditions appropriate for each microorganism (e.g. aerobic conditions for S. aureus and P. aeruginosa, and anaerobic conditions for C. acnes). Following incubation, the cellulose disks were each aseptically removed from the agar surface and the microorganism contents of the cellulose disks were individually extracted using sterile phosphate-buffered saline solution. Each of the resulting microorganism suspensions were serially diluted 1:10 in sterile phosphate-buffered saline solution and 1.000 mL of the appropriate dilutions were plated in singlet to sterile growth media appropriate for the target test microorganism. Following incubation for 72 hours 40 minutes at conditions appropriate for each microorganism, the surviving test microorganisms were recorded for each test and control plate. • (B) The same methodology as (A) was performed, but the cellulose disk plates additionally included the supernatant of a C. acnes culture that was grown on a substrate comprising 20% glycerol. […]

[7] = system: C. acnes; assay: Cellulose disk on nutrient agar survival test (Example 5); assay type: cell-based; details: 48 hours incubation, anaerobic; glycerol as 20% in water
Description: The growth of C. acnes in the presence of glycerol, chitosan-dextran polymer (CS-DA), and a combination of glycerol and chitosan-dextran polymer (CS-DA-GLY) was investigated according to the following methodology: • Cellulose disks (approximately 1 cm in diameter) pre-soaked in C. acnes culture were placed on the surface of sterile nutrient agar plates. A test substance was placed on top of the soaked disks to allow contact with both the nutrient agar and a test substance. An untreated control agar plate contained only the soaked cellulose disk, with no test substance applied. The test substances were: (1) 20% glycerol in water; (2) a composition comprising aldehyde-derivatised dextran polymer cross linked with N-succinyl chitosan polymer, an aqueous phosphate buffer and approximately 20% v/v glycerol, prepared according to the description above in Example 2 (herein referred to as CS-DA-GLY); and (3) a composition comprising aldehyde-derivatised dextran polymer cross linked with N-succinyl chitosan polymer, and an aqueous phosphate buffer (herein referred to as CS-DA). That is, the composition of test substances (2) and (3) differ only in the presence and absence of glycerol. […] Following incubation for 112 hours 5 minutes at conditions appropriate for the microorganism, the surviving test microorganisms were recorded for each test and control plate.

[8] = system: C. pseudodiphtheriticum; assay: Planktonic growth of nasal clinical isolates (OD 595 nm, 24 h); assay type: cell-based, Corynebacterium pseudodiphtheriticum
Procedure: as §1, §2, §3

[9] = system: C. propinquum; assay: as above; assay type: cell-based, Corynebacterium propinquum
Procedure: as §1, §2
Glycerol at 20% was prepared by dilution in nutrient broth (NB) media. Glycerol treatments at 20% concentrations were prepared in a 96-well microtitration plate containing 50 μL NB. A single colony of bacterial isolates such as C. accolens, C. propinquum, C. pseudodiptheriticum, S. epidermidis, S. aureus and P. aeruginosa from overnight cultures was suspended with 0.9% saline (aqueous NaCl) to McFarland standard of 0.5 and diluted 1:100 in NB growth media. […] After incubation, the planktonic bacterial growth was determined by measuring the optical density (OD) at 595 nm using microplate absorbance reader (iMark™, BIO-RAD). […]

[10] = system: P. aeruginosa; assay: Cellulose disk on nutrient agar survival test (Example 6); assay type: cell-based; details: 48 h aerobic
Description: as §4, with “Following incubation, the cellulose disks were each aseptically removed from the agar surface and the microorganism contents of the cellulose disks were individually extracted using sterile phosphate-buffered saline solution. Each of the resulting microorganism suspensions were serially diluted 1:10 in sterile phosphate-buffered saline solution and 1.000 mL of the appropriate dilutions were plated in singlet to sterile growth media appropriate for the target test microorganism.” left out

[11] = 20% glycerol, Nutrient Broth, 24 hours
[12] = 20% v/v glycerol, media (NB and BHI)
[13] = test set A, no C. acnes supernatant, glycerol as 20% v/v in water

## OCC(O)CO [glycerol]
[1]; 20% glycerol, BHI broth
  growth of commensal and pathogenic bacterial isolates: significantly inhibit
[1]; 40% glycerol, BHI broth
  growth of commensal and pathogenic bacterial isolates: significantly inhibit
[1]; 40% glycerol, NB
  growth of commensal and pathogenic bacterial isolates: significantly inhibit
[2]; [11]
  planktonic growth of S. epidermidis vs untreated growth control: significantly inhibit; also recorded: significantly reduced
[2]; [12]
  growth of S. epidermidis compared to control: inhibited
[2]; 40% v/v glycerol, NB and BHI
  growth of S. epidermidis: significant inhibitory effect
[3]; [11]
  planktonic growth of S. aureus vs untreated growth control: significantly reduced; also recorded: significantly inhibit
[3]; [12]
  growth of S. aureus compared to control: inhibited
[3]; 40% v/v glycerol, NB and BHI
  growth of S. aureus: significant inhibitory effect
[4]; [11]
  planktonic growth of P. aeruginosa vs untreated growth control: significantly inhibit; also recorded: significantly reduced
[4]; [12]
  growth of P. aeruginosa compared to control: inhibited
[4]; 40% v/v glycerol, NB and BHI
  growth of P. aeruginosa: significant inhibitory effect
[5]; 20% v/v glycerol
  growth of C. accolens compared to control: either unaffected or promoted
[5]; 40% v/v glycerol
  growth of C. accolens: significant inhibitory effect
[6]; [13]
  growth of S. aureus compared to control: decrease
[6]; test set B, comprising C. acnes supernatant (method b251: culture grown on 20% glycerol substrate)
  growth of S. aureus compared to control: decrease
[6]; test set C, comprising C. acnes supernatant (method b251: glycerol-free substrate; b254: grown in the presence of glycerol)
  growth of S. aureus compared to control: decrease
[7]
  growth (percent survival) of C. acnes compared to untreated control: supported
[8]; [11]
  planktonic growth of C. pseudodiphtheriticum vs untreated growth control: significantly inhibit; also recorded: significantly reduced
[8]; [12]
  growth of C. pseudodiphtheriticum compared to control: inhibited
[8]; 40% v/v glycerol, NB and BHI
  growth of C. pseudodiphtheriticum: significant inhibitory effect
[9]; [12]
  growth of C. propinquum compared to control: inhibited
[9]; 40% v/v glycerol, NB and BHI
  growth of C. propinquum: significant inhibitory effect
[10]; [13]
  growth of P. aeruginosa compared to control: decrease
[10]; test set C, with C. acnes supernatant (grown in the presence of glycerol)
  growth of P. aeruginosa compared to control: much more substantial decrease; also recorded: reduction
